Test results as given in ChEMBL document CHEMBL5346960, “Quantitative Attribution of the Protective Effects of Aminosterols against Protein Aggregates to Their Chemical Structures and Ability to Modulate Biological Membranes” (2023).
Activity calls are given as the source filed them. The rule behind the calls is not given here.

How the values were obtained:
Lipid bilayer [1] = test: Induction of membrane redistribution in large unilamellar vesicles liposome model assessed as mean shortest distance between BODIPY-FL C5-GM1 and BODIPY-542/563 C11-CHOL at 5 uM by FRET assay relative to control; details: filed as modulator
Lipid bilayer [2] = test: Induction of membrane redistribution in large unilamellar vesicles liposome model assessed as mean shortest distance between BODIPY-FL-CHOL and BODIPY-542/563 C11-CHOL at 5 uM by FRET assay relative to control; details: filed as modulator
Lipid bilayer [3] = test: Binding affinity to large unilamellar vesicles liposome model assessed as saturation concentration by measuring increase in LUV mass incubated for 15 mins by light scattering analysis; details: filed as modulator
SH-SY5Y [4] = test: Protection against human SH-SY5Y cells assessed as decrease in ADDL-induced cytosolic calcium level incubated for 15 mins by Fluo-4 AM dye based scanning confocal microscopic analysis; type: functional, cell-based; details: dose 0.05-5 µM
Lipid bilayer [5] = test: Binding affinity to large unilamellar vesicles liposome model assessed as increase in LUV size incubated for 15 mins by light scattering analysis; details: filed as modulator
Lipid bilayer [6] = test: Induction of membrane redistribution in large unilamellar vesicles liposome model assessed as mean shortest distance between BODIPY-FL-SM and BODIPY-542/563 C11-CHOL at 5 uM by FRET assay (reference value: 69 +/- 1 Angstrom); details: filed as modulator
SH-SY5Y [7] = test: Protection against human SH-SY5Y cells assessed as decrease in ADDL-induced cytosolic calcium level at 5 uM incubated for 15 mins by Fluo-4 AM dye based scanning confocal microscopic analysis; type: functional; set-up: scale not given: the % may be the effect or the level left; details: 0.25 h
Lipid bilayer [8] = test: Induction of membrane redistribution in large unilamellar vesicles liposome model assessed as mean shortest distance between BODIPY-FL-CHOL and BODIPY-542/563 C11-CHOL at 5 uM by FRET assay (reference value: 72 +/- 1 Angstrom); details: filed as modulator
Lipid bilayer [9] = test: Displacement of alpha-synuclein from DMPS large unilamellar vesicles liposome model incubated for 15 mins by Far-UV CD spectroscopy; details: filed as modulator, dose <= 70.0 µM
Lipid bilayer [10] = test: Induction of membrane redistribution in large unilamellar vesicles liposome model assessed as mean shortest distance between BODIPY-FL C5-GM1 and BODIPY-542/563 C11-CHOL at 5 uM by FRET assay (reference value: 65 +/- 1 Angstrom); details: filed as modulator
Lipid bilayer [11] = test: Binding affinity to large unilamellar vesicles liposome model assessed as increase in LUV diameter incubated for 15 mins by light scattering analysis
Lipid bilayer [12] = test: Binding affinity to large unilamellar vesicles liposome model assessed as saturation concentration by measuring increase in incorporated compound mass incubated for 15 mins by light scattering analysis; details: filed as modulator
Lipid bilayer [13] = test: Binding affinity to large unilamellar vesicles liposome model assessed as increase in transition temperature […] (reference value: 24.5 +/- 2 degreeC); details: filed as modulator
Lipid bilayer [14] = test: Induction of membrane redistribution in large unilamellar vesicles liposome model assessed as mean shortest distance between BODIPY-FL-DOPC and BODIPY-542/563 C11-CHOL at 5 uM by FRET assay (reference value: 70 +/- 2 Angstrom); details: filed as modulator
Lipid bilayer [15] = test: Binding affinity to large unilamellar vesicles liposome model assessed as saturation concentration by microfluidic analysis; details: filed as modulator

| Structure (SMILES) | Activity (Lipid bilayer [1]) | Activity (Lipid bilayer [2]) | Activity (Lipid bilayer [3]) | Activity (SH-SY5Y [4]) | Activity (Lipid bilayer [5]) | Activity (Lipid bilayer [6]) | Activity (SH-SY5Y [7]) | Activity (Lipid bilayer [8]) | Activity (Lipid bilayer [9]) | Activity (Lipid bilayer [10]) | Activity (Lipid bilayer [11]) | Activity (Lipid bilayer [12]) | T (Lipid bilayer [13]) | Activity (Lipid bilayer [14]) | Activity (Lipid bilayer [15]) |
| --- | --- | --- | --- | --- | --- | --- | --- | --- | --- | --- | --- | --- | --- | --- | --- |
| C[C@H](CCC[C@H](C)C(=O)O)[C@H]1CC[C@H]2[C@@H]3[C@H](O)C[C@H]4C[C@@H](NCCCNCCCCNCCCN)CC[C@]4(C)[C@H]3CC[C@]12C | 57% | 64% | 43 µM | Dose-Dependent Effect | Active | 69 Angstrom | 100% | 63 Angstrom | Dose-Dependent Effect | 73 Angstrom | inactive | 43 µM | 46 °C | 67 Angstrom |  |
| CC(C)[C@@H](CC[C@@H](C)[C@H]1CC[C@H]2[C@@H]3[C@H](O)C[C@H]4C[C@@H](NCCCNCCCCN)CC[C@]4(C)[C@H]3CC[C@]12C)OS(=O)(=O)O [SQUALAMINE] | 50% | 57% | 12 µM | Dose-Dependent Effect | Active | 72 Angstrom | 100% | 64 Angstrom | Dose-Dependent Effect | 72 Angstrom | inactive | 15 µM | 35 °C | 68 Angstrom |  |
| CC(C)[C@@H](CC[C@@H](C)[C@H]1CC[C@H]2[C@@H]3[C@H](O)C[C@H]4C[C@@H](NCCCNCCCCNCCCN)CC[C@]4(C)[C@H]3CC[C@]12C)OS(=O)(=O)O [TRODUSQUEMINE] | 100% | 100% | 35 µM | Dose-Dependent Effect | Active | 67 Angstrom | 100% | 58 Angstrom | Dose-Dependent Effect | 79 Angstrom | inactive | 35 µM | 46 °C | 68 Angstrom | 28 µM |
